Where two headings read alike, the source gives them in different places.
Assays:
[1] = test system: Rat primary cortical neuron cultures; experiment: Neuroprotection of rat cortical neurons against LPS challenge (Cell Titer-Glo); conditions: at at least one dose tested
[2] = test system: Prp-TDP43^A315T mice; type: in vivo
Method: Extranuclear accumulation of TDP-43 protein is a pathological hallmark of a number of neurological diseases. […] Male Prp-TDP43^A315T mice (N=10 mice per group) at 3 weeks of age were administered daily treatments of test compounds. Compound A19 was administered via subcutaneous injection, and Compound 5a and Compound 6a were administered via oral gavage. After 2 months of treatment, plasma samples were collected for cytokine quantification. […] Plasma IL-6 and TNF-α cytokine expression levels were determined using the ELISA method. The submandibular vein was punctured with a lancet and a blood drop was collected directly on a microtube containing EDTA as anticoagulant. Samples were centrifuged for 15 minutes at 1000×g at 4° C. within 20 minutes of collection. 20 μl of plasma supernatant was stored at −20° C. before ELISA analysis.
Plasma was diluted at 1:10 in sterile PBS, and IL-6 and TNF-α quantification was performed in duplicate for each animal using 10 μl of sample per well in 96-well plates using the ELISA method (IL-6: Signa-Aldrich Cat #RAB0308, TNF-α: Sigma-Aldrich Cat #RAB0477). Statistical analysis was carried out by 2-way ANOVA with Dunnett's multiple comparisons post-test with compound-treated samples compared to vehicle-treated samples.

[3] = test system: Rat primary cortical neuron cultures; conditions: LPS 24 h
[4] = test system: THP-1-differentiated macrophages; experiment: Pro-inflammatory cytokines in supernatants of LPS-challenged THP-1-differentiated macrophages; type: cell-based, human; set-up: key to Significant reduction in pro-inflammatory cytokine expression: IL-6 / Significant reduction in pro-inflammatory cytokine expression: TNF-α / Significant reduction in pro-inflammatory cytokine expression: IL-1β: “NS” indicates a non-significant reduction in the indicated cytokine; “+” indicates a p value <0.05 in Tukey post test; “++” indicates a p value <0.01 in Tukey post test; conditions: for Significant reduction in pro-inflammatory cytokine expression: IL-1β / Significant reduction in pro-inflammatory cytokine expression: IL-6 / Significant reduction in pro-inflammatory cytokine expression: TNF-α: LPS 24 hrs
Text: Neuroinflammation plays a crucial role in disease progression and is a complex phenomenon involving various cells that affect many extra- and intracellular signaling pathways and cytokine production. The macrophage of the brain (microglia) is the main agent of innate immunity in the CNS and performs various functions, including neuroprotection, in response to inflammatory signals. Activated microglia participate in developing neuroinflammation, responding to toxic exogenous substances (like LPS) or endogenous substances (like amyloid-beta). Here, THP-1 cells were used as an in-vitro cell model to evaluate mechanisms relevant to CNS inflammation. Differentiation with phorbol-12-myristate-13-acetate (PMA) causes THP-1 monocyte cells to acquire functional and morphological resemblance to macrophages. LPS interacts with THP-1 differentiated macrophage through the toll-like receptor 4, triggering the inflammatory response and stimulating pro-inflammatory cytokine release and eventually leading to cellular death. Test compounds were investigated for whether they have anti-inflammatory effects on LPS-challenged macrophage cultures. THP-1-differentiated macrophages were treated with test compounds for 20 minutes, followed by 24 hrs of LPS challenge. Culture supernatants were then collected to analyzed for the presence of pro-inflammatory cytokines: interleukin 1β (IL--1β), interleukin 6 (IL-6) and tumor necrosis factor α (TNF-α).
Cytokine quantification in cell culture supernatants was accomplished by homogeneous time resolved fluorescence (HTRF) kits to assess levels of IL-1β (Human IL-1β kit, #62HIL1BPEG, Cisbio) and IL-6 (Human IL-6 kit, 62HILO6PET, Cisbio), and by ELISA (Human TNF-α ELISA kit, KHC3011, ThermoFisher) to determine the levels of TNF-α.
Data analysis was performed via 1-way ANOVA with Tukey post-test compared to LPS treatment cultures using Prism statistical software (GraphPad). Tabular data indicates significance of reduction in culture supernatants for the indicated analyte at the indicated dose.

[5] = test system: primary culture of both cortical neurons and microglia; experiment: Microglial activation (Iba1 area) after Aβ1-42 challenge; type: cell-based; conditions: 5 ng/ml; 15 min Pre-Aβ challenge
[6] = 2 months of treatment, doses as in the value

With `CCC(C)CN1CC2N(Cc3ccc(OC(F)F)cc3)CCC(=O)N2[C@@H](C)C1=O` (some centres unmarked) [Compound 6a] the “Protection of primary neurons from LPS-stimulated inflammatory toxicity (in words)” value [1] was “protected primary neurons from LPS-stimulated inflammatory toxicity”, the “Significant decrease in plasma cytokine expression after 2 months of treatment: IL-6” value ([2]; 10 mg/kg PO daily) was “++++ (++++ = p < 0.0001)” and the “Significant decrease in plasma cytokine expression after 2 months of treatment: TNF-α” value ([2]; 10 mg/kg PO daily) was “++++ (++++ = p < 0.0001)”. The “Significant decrease in plasma cytokine expression after 2 months of treatment: IL-6” value ([2]; 20 mg/kg PO daily) was “++++ (++++ = p < 0.0001)”, the “Significant decrease in plasma cytokine expression after 2 months of treatment: TNF-α” value ([2]; 20 mg/kg PO daily) was “++++ (++++ = p < 0.0001)” and the “Plasma IL-6 expression (result in words)” value [2, 6] was “significantly reduced expression of both cytokines at doses of 10 and 20 mg/kg”. For the same compound, the “Plasma TNF-α expression (result in words)” value [2, 6] was “significantly reduced expression of both cytokines at doses of 10 and 20 mg/kg”, the “Significance of neuroprotection vs 1 uM LPS” value (“Significance … vs 1 uM LPS” below) ([3]; dose 0.1 nM) was “+++ (+++ indicates p<0.001)” and the “Significance … vs 1 uM LPS” value ([3]; dose 1 nM) was “+++ (+++ indicates p<0.001)”. The “Significance … vs 1 uM LPS” value ([3]; dose 10 nM) was “+++ (+++ indicates p<0.001)”, the “Significance … vs 1 uM LPS” value ([3]; dose 100 nM) was “+++ (+++ indicates p<0.001)” and the “Significance … vs 1 uM LPS” value ([3]; dose 1 μM) was “+++ (+++ indicates p<0.001)”. The “Expression of IL-1β and TNF-α (result in words)” value ([4]; at at least one tested dose) was “significantly reduced”, the “Significant reduction in pro-inflammatory cytokine expression: IL-1β” value (“Significant reduction … IL-1β” below) ([4]; dose 0.1 nM) was “NS” and the “Significant reduction in pro-inflammatory cytokine expression: IL-6” value (shortened to “Significant reduction … IL-6”) ([4]; dose 0.1 nM) was “NS”. The “Significant reduction in pro-inflammatory cytokine expression: TNF-α” value (“Significant reduction … TNF-α” below) ([4]; dose 0.1 nM) was “NS”, the “Significant reduction … IL-1β” value ([4]; dose 10 nM) was “NS” and the “Significant reduction … IL-6” value ([4]; dose 10 nM) was “NS”. For the same compound, the “Significant reduction … TNF-α” value ([4]; dose 10 nM) was “NS”, the “Significant reduction … IL-1β” value ([4]; dose 1000 nM) was “+ (“+” indicates a p value <0.05 in Tukey post test)” and the “Significant reduction … IL-6” value ([4]; dose 1000 nM) was “NS”. For the same compound, the “Significant reduction … TNF-α” value ([4]; dose 1000 nM) was “+ (“+” indicates a p value <0.05 in Tukey post test)”.
With “HGF: Hepatocyte growth factor, 5 ng/ml treatment in the microglia culture” the “Significant decrease in Iba1 area, compared to vehicle treated (Aβ challenge)” value [5] was “+ (“+” indicates a p value < 0.05 in Fisher's LSD post-test compared to Aβ challenged)”.

Reference: patent publication US20250275976A1, “Methods of Treating Neuroinflammatory Conditions” (Athira Pharma, Inc., priority 2022, published 2025)
